Test results as given in ChEMBL document CHEMBL2203104, “Recent advances in antitubercular natural products” (Eur J Med Chem, 2012).
Numbered stars: 1 amine (or outer) side, 2 acyl side, 3 side chain; on linkers, the order of the positions; unused ones are H or OH. Square brackets hold non-standard residues; d marks the D form. Peptide text beside a SMILES is read from it. * marks the point of attachment. X1 = CCC(=O)C[C@@H](O)C[C@@H](C)C[C@H](N[*:1])C(=O)[*:2]; Alaψ(CH2NMeCH2CH2OH) = C[C@@H](CN(C)CCO)N*; Decanoyl(2R-Me) = CCCCCCCC[C@@H](C)C(=O)*; Aib = CC(C)(N)C(=O)O

Tests used:
[1] = test system: Mycobacterium tuberculosis; experiment: Antimycobacterial activity against Mycobacterium tuberculosis H37Rv; type: functional; details: Mycobacterium tuberculosis, H37Rv; read-out: MIC
[2] = test system: Mycobacterium tuberculosis; experiment: Antimycobacterial activity against Mycobacterium tuberculosis H37Ra; type: functional

SMILES	MIC [1]	MIC [2]
COc1cc(-c2ccc3c(c2)OCO3)nc2ccccc12 [GRAVEOLININE]	16 µg/mL	
CC1(C)C=Cc2c(cc3oc(CO)cc(=O)c3c2O)O1 [GREVEICHROMENOL]		50 µg/mL
C=C[C@H]1C=C[C@H]2[C@@H]3C[C@H](C)CC[C@H]3[C@@H]3Oc4ccc(cc4)C[C@]4(O)NC(=O)[C@H](C(=O)[C@@H]1[C@H]23)C4N1C(=O)[C@H]2C(=O)[C@H]3[C@@H](C=C)C=C[C@H]4[C@@H]5C[C@H](C)CC[C@H]5[C@H](Oc5ccc(cc5)C[C@@H]2C1=O)[C@@H]43 (stereo not given in full) [HIRSUTELLONE F]		3.12 µg/mL
CC(C)C1=C(O)C(=O)C2=C(C1=O)[C@H](O)C[C@H]1C(C)(C)CCC[C@]21C [HORMINONE]	25 µg/mL	
O=C1C=C[C@@H](OC(=O)/C=C/c2ccccc2)[C@@H]([C@H]2O[C@@H]2c2ccccc2)O1 [HOWIININ A]		6.25 µg/mL
Cl.Nc1ncc(C/C=C/NC(=O)c2cc(Br)c[nH]2)[nH]1 [HYMENIDINE]	6.1 µg/mL	
CC(C)=CCc1c(O)ccc(C(=O)/C=C/c2ccc(O)cc2)c1O [ISOBAVACHALCONE]	18 µg/mL	
C=C1C(=O)O[C@H]2[C@H]1[C@@H](OC(=O)/C(C)=C\C)C[C@@]1(C)OC(=CC1=O)C(=C)[C@H]2O [ISOCENTRATHERIN]		3.1 µg/mL
CSc1cnc2c3c(nc4ccccc4c13)C(CCNC(C)=O)=CC2=O [ISODIPLAMINE]	17 µM	
C=C(C)C(=O)O[C@H]1C[C@@]2(C)OC(=CC2=O)C(=C)[C@@H](O)[C@H]2OC(=O)C(=C)[C@@H]21 [ISOGOIAZENSOLIDE]		1.5 µg/mL
COc1c(-c2ccccc2)oc2c3c(ccc2c1=O)OC(C)(C)C=C3 [KARANJACHROMENE]		12.5 µg/mL
COc1c2ccoc2nc2c3c(ccc12)OCO3 [KOKUSAGINE]	16 µg/mL	
O=C1c2scnc2-c2nccc3c2c1nc1ccccc13 [KUANONIAMINE A]	10.7 µM	
CC(=O)NCCc1c2c3c(ccnc3c3ncsc13)-c1ccccc1N2 [KUANONIAMINE D]	34 µM	
O=c1cc(-c2ccccc2)oc2c1ccc1occc12 [LANCEOLATIN B]		50 µg/mL
CC(=O)NCCc1c2c(c3nccc4c3c1Nc1ccccc1-4)OCS2 [LISSOCLINIDINE]	17 µM	
C=C1C(=O)O[C@@H]2/C=C(/CO)C3=CC(=O)[C@@](C)(C[C@H](OC(=O)/C(C)=C/C)[C@@H]12)O3 [LYCHNOPHOROLIDE B]		6.2 µg/mL
Oc1ccc2c(c1)OC[C@H]1c3cc4c(cc3O[C@@H]21)OCO4 [MAACKIAIN]		50 µg/mL
O=C(CCCCCCCCc1ccccc1)c1c(O)cccc1O [MALABARICONE A]		25 µg/mL
COC(=O)/C=C/c1ccc(O)c(O)c1 [METHYLCAFFEATE]		25 µg/mL

SMILES	MIC [1]	MIC [2]
[C-]#[N+][C@@]12CCC(=C)[C@H]3[C@H](CC(C)(C)NC(=O)CN4CCC4=O)C[C@H](C)[C@@H](CC[C@@H]1C)[C@@H]32 [MONAMPHILECTINE A]	15.3 µg/mL	
NC1=N[C@@]23CCCN2C(=O)c2[nH]cc(Br)c2[C@@H]3N1 [MONOBROMOISOPHAKELLIN]	64 µg/mL	
C/C=C(/NC(=O)c1csc(-c2csc(-c3ccc4c(n3)-c3csc(n3)C(C(C)(O)C(C)O)NC(=O)c3csc(n3)C(C(C)C)NC(=O)c3csc(n3)/C(=C/OC)NC(=O)C(C(C)O)NC(=O)c3csc-4n3)n2)n1)C(=O)OC (stereo not given) [NOCARDITHIOCIN]	0.025 µg/mL	
CCCCC/C=C/C=C/C(=O)NCC(C)C [PELLITORIN]		50 µg/mL
C=C(C)CC(O)c1c(OC)cc(O)c2c(=O)cc(C)oc12 (stereo not given) [PERFORAMONE B]		25 µg/mL
CC1(C)C=Cc2c(cc(O)c3c(=O)cc(CO)oc23)O1 [PERFORAMONE D]		25 µg/mL
COc1c2ccoc2cc2oc(-c3ccccc3)cc(=O)c12 [PINNATIN]		12.5 µg/mL
O=C1C[C@@H](c2ccccc2)Oc2cc(O)cc(O)c21 [PINOCEMBRIN]		12.5 µg/mL
CCCCCCC1=C(O)CC(CCCCC)OC1=O (stereo not given) [PSEUDOPYRONINES A]	3.12 µg/mL	
CC[C@H](C)[C@H]1C(=O)N[C@@H](Cc2ccc(OCC=C(C)C)cc2)C(=O)N(C)[C@@H](C)C(=O)O[C@H](Cc2ccccc2)C(=O)N2CCC[C@H]2C(=O)N[C@@H](CO)C(=O)N1C [PULLULARIN A]		25 µg/mL
CC(C)=CCOc1ccc(C[C@@H]2NC(=O)[C@H](C(C)C)N(C)C(=O)[C@H](CO)NC(=O)[C@@H]3CCCN3C(=O)[C@@H](Cc3ccccc3)OC(=O)[C@H](C)N(C)C2=O)cc1 [PULLULARIN C]		50 µg/mL
NC(=O)c1cnccn1 [PYRAZINAMIDE]	810 µM	810 µM
CCCCC/C=C/C=C/C(=O)N1CCCC1 [SARMENTINE]		50 µg/mL
O=C(/C=C/CC/C=C/c1ccc2c(c1)OCO2)N1CCCC1 [SARMENTOSINE]		50 µg/mL
COc1cc2ccc(=O)oc2cc1O [SCOPOLETIN]	42 µg/mL	
CC(=O)NCCc1c2c(c3nccc4c3c1Nc1ccccc1-4)NC(=O)CS2 [SHERMILAMINE B]	32 µM	
C/C=C(C)/C=C(\C)C(O)C(C)[C@H](O)[C@@H](O)[C@H]1C/C=C\C=C\[C@H](O)C[C@@H](O)[C@H](C)c2nc(cs2)/C=C(\CCCCCC)C(=O)O1 (stereo not given in full) [THUGGACIN A]	8 µg/mL	
C/C(=C\CO)CCC[C@H](C)CCC[C@H](C)CCCC(C)C [TRANS-PHYTOL]	12.5 µg/mL	
CCCCCCCC[C@@H](C)C(=O)N1CCC[C@H]1C(=O)N[C@@H](C[C@H](C)C[C@H](O)CC(=O)CC)C(=O)NC(C)(C)C(=O)NC(C)(C)C(=O)N[C@H](C(=O)N[C@H](C(=O)NC(C)(C)C(=O)NC(C)(C)C(=O)N[C@@H](C)CN(C)CCO)C(C)C)[C@@H](C)CC [TRICHODERIN A] ({Decanoyl(2R-Me)}-P[X1][Aib][Aib]IV[Aib][Aib]-{Alaψ(CH2NMeCH2CH2OH)})		25 µg/mL
